The record followed here is paper PMC8969509 (Journal of Antimicrobial Chemotherapy, 2022).

This test deals with T1, Mtb topoisomerase I (Mycobacterium tuberculosis, UniProt P9WG49).
T1 construct: gene topA
Put plainly: biochemical.

pIC50: −log10 of the molar value.

T1 sequence (P9WG49 whole entry): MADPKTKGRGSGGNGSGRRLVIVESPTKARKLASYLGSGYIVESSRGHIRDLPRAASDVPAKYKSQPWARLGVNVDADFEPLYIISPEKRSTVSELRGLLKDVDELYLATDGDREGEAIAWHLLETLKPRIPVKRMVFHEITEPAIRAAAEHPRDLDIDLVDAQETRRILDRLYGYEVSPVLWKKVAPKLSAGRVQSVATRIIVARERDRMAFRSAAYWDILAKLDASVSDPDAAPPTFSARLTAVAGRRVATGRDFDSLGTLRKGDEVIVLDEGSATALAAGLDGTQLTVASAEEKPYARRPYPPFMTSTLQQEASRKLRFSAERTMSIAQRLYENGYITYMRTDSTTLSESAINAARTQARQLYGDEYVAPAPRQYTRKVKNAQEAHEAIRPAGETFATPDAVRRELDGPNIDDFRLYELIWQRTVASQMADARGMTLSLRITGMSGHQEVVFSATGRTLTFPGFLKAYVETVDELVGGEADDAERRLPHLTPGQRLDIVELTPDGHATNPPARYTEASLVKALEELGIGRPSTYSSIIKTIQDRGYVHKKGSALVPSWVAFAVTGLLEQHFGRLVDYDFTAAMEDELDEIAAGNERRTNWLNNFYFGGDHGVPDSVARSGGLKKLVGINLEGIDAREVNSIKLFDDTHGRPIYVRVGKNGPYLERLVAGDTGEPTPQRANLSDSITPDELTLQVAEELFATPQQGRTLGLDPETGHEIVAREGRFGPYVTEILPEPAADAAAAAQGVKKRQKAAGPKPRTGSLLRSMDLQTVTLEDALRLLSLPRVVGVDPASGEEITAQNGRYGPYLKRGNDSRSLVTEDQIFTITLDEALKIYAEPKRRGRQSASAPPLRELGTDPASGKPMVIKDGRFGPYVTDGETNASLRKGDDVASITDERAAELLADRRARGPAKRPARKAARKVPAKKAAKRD

Usually pIC50 stands for −log10 of the IC50, conventionally taken in molar units. Compound `COc1cc(NS(C)(=O)=O)ccc1Nc1c2ccccc2nc2ccccc12` [mAMSA] had a pIC50 of 4.76.
